The text below walks through data of patent publication US10758534B2 (Vertex Pharmaceuticals Incorporated, priority 2014, dated 2020).

Molecules are shown by their SMILES.

The target in the assay is T1, F508del (Homo sapiens, UniProt P13569, DEL508-508).
T1 construct: expressed in transfected cells
T1 sequence (P13569 with tags, fused parts or gaps DEL508-508): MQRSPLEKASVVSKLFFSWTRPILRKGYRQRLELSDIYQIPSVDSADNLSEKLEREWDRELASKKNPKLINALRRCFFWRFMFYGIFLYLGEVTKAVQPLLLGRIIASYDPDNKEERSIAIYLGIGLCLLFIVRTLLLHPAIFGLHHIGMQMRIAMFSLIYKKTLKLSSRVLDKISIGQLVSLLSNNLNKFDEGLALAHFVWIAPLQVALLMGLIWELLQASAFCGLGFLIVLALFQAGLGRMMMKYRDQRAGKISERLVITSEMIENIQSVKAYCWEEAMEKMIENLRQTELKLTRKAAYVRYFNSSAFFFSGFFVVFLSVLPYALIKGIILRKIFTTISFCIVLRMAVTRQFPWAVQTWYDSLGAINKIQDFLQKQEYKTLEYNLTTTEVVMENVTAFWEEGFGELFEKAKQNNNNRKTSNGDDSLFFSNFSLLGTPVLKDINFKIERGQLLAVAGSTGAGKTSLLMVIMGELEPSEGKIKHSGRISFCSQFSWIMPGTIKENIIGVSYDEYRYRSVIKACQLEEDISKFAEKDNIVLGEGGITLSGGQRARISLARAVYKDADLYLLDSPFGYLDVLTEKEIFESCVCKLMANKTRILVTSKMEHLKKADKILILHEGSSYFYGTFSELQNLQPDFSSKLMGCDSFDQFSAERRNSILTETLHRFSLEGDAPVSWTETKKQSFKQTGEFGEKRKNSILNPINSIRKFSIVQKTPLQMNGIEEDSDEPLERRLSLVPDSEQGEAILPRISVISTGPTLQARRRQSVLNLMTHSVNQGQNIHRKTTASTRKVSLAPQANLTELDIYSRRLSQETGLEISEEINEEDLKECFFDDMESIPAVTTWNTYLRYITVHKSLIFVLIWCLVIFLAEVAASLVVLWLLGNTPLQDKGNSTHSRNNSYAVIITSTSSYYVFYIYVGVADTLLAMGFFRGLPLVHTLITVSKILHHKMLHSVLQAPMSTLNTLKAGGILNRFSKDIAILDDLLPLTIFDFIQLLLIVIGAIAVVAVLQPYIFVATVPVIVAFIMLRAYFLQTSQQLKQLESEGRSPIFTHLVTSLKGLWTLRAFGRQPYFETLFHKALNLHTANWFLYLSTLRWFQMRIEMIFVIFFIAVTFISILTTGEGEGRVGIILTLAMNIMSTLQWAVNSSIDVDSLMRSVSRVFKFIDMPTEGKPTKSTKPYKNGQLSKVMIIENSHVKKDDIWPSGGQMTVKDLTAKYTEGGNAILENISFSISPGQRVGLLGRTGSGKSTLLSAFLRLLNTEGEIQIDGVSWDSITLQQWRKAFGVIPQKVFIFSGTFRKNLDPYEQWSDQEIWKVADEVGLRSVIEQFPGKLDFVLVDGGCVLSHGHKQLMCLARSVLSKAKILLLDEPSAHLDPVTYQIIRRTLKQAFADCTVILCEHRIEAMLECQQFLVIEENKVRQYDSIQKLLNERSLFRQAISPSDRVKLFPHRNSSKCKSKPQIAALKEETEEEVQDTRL
As to the kind of experiment: Protocol 1: membrane potential optical assay (FLIPR III, voltage sensing dye), identification of potentiator compounds. The class given is cell-based. The conditions noted are these: Table 3, compounds of Table 1. In short, it runs like this:
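Gating potentiation is read as a membrane-potential fluorescence change (FLIPR III, voltage-sensing dye) after one forskolin addition under a Cl− gradient, with gluconate replacing chloride, pH 7.4. Cells are F508del-expressing NIH3T3 mouse fibroblasts held 24 h at 27 °C and exposed to compound before dye loading.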
As to `C[C@@H]1CN(c2nc(-c3cccc(Cl)c3)ccc2C(=O)NS(=O)(=O)c2ccc[nH]c2=O)C(C)(C)C1` [Compound 1791, 6-(3-chlorophenyl)-N-[(2-oxo-1H-pyridin-3-yl)sulfonyl]-2-[(4S)-2,2,4-trimethylpyrrolidin-1-yl]pyridine-3-carboxamide], the EC30 entry is recorded as “+++ (“+++” means <3 uM)”.

Take `CC(C)COc1cc(F)cc(-c2ccc(C(=O)NS(=O)(=O)c3cccnc3N)c(N3[C@H](C)CC[C@@H]3C)n2)c1` [Compound 1159, N-[(2-amino-3-pyridyl)sulfonyl]-2-[(2S,5R)-2,5-dimethylpyrrolidin-1-yl]-6-(3-fluoro-5-isobutoxy-phenyl)pyridine-3-carboxamide]: the EC30 entry was “+++ (“+++” means <3 uM)”.

Take `CC(C)COc1cc(F)cc(-c2ccc(C(=O)NS(=O)(=O)c3ccccc3)c(N3C[C@@H](C)CC3(C)C)n2)c1` [Compound 1356, N-(benzenesulfonyl)-6-(3-fluoro-5-isobutoxy-phenyl)-2-[(4S)-2,2,4-trimethylpyrrolidin-1-yl]pyridine-3-carboxamide]: the EC30 entry is reported as “+++ (“+++” means <3 uM)”.

With `C[C@@H]1CN(c2nc(-c3cccc(C#N)c3)ccc2C(=O)NS(=O)(=O)c2cccnc2N)C(C)(C)C1` [Compound 1824, N-[(2-amino-3-pyridyl)sulfonyl]-6-(3-cyanophenyl)-2-[(4S)-2,2,4-trimethylpyrrolidin-1-yl]pyridine-3-carboxamide], the EC30 result was “+++ (“+++” means <3 uM)”.

Regarding `CC(C)c1ccc(-c2ccc(C(=O)NS(=O)(=O)c3cccc(N)n3)c(N3[C@H](C)CC[C@@H]3C)n2)cc1` [Compound 1343, N-[(6-amino-2-pyridyl)sulfonyl]-2-[(2S,5R)-2,5-dimethylpyrrolidin-1-yl]-6-(4-isopropylphenyl)pyridine-3-carboxamide], the EC30 result was “+++ (“+++” means <3 uM)”.

For the compound `C[C@@H]1CC[C@H](C)N1c1nc(-c2ccc(OC(F)F)nc2)ccc1C(=O)NS(=O)(=O)c1cccc(N)n1` [Compound 1679, N-[(6-amino-2-pyridyl)sulfonyl]-6-[6-(difluoromethoxy)-3-pyridyl]-2-[(2S,5R)-2,5-dimethylpyrrolidin-1-yl]pyridine-3-carboxamide], the EC30 result is “+++ (“+++” means <3 uM)”.

Consider `CCC(Oc1nc(-c2cc(F)cc(OCC(C)C)c2)ccc1C(=O)NS(=O)(=O)c1cccc(N)n1)c1ccccc1` (stereo not drawn) [Compound 1068, N-[(6-amino-2-pyridyl)sulfonyl]-6-(3-fluoro-5-isobutoxy-phenyl)-2-(1-phenylpropoxy)pyridine-3-carboxamide], for which the EC30 entry is listed as “+++ (“+++” means <3 uM)”.

With `C[C@@H]1CN(c2nc(C3CCOCC3)ccc2C(=O)NS(=O)(=O)c2cccnc2N)C(C)(C)C1` [Compound 1850, N-[(2-amino-3-pyridyl)sulfonyl]-6-tetrahydropyran-4-yl-2-[(4S)-2,2,4-trimethylpyrrolidin-1-yl]pyridine-3-carboxamide], the EC30 entry was “+++ (“+++” means <3 uM)”.

For `COc1cccc(OC)c1-c1ccc(C(=O)NS(=O)(=O)c2cccc(N)n2)c(Oc2c(C)cc(C)cc2C)n1` [Compound 1326, N-[(6-amino-2-pyridyl)sulfonyl]-6-(2,6-dimethoxyphenyl)-2-(2,4,6-trimethylphenoxy)pyridine-3-carboxamide], the EC30 entry was “++ (“++” means between 3 uM and 10 uM)”.

In the case of `Cc1cc(C)c(Oc2nc(-c3cc(F)ccc3O)ccc2C(=O)NS(=O)(=O)c2cccc(N)n2)c(C)c1` [Compound 1049], the EC30 result is “+++ (“+++” means <3 uM)”.

As for `CC(C)Oc1ccc(-c2ccc(C(=O)NS(=O)(=O)c3cccc(N)n3)c(N3[C@H](C)CC[C@H]3C)n2)cn1` [Compound 1198, N-[(6-amino-2-pyridyl)sulfonyl]-2-[(2R,5R)-2,5-dimethylpyrrolidin-1-yl]-6-(6-isopropoxy-3-pyridyl)pyridine-3-carboxamide], the EC30 result was “+++ (“+++” means <3 uM)”.

Consider `COc1ncccc1S(=O)(=O)NC(=O)c1ccc(-c2cc(F)cc(OC(C)C)c2)nc1-c1ccc(C)cc1` [Compound 798, 6-(3-fluoro-5-isopropoxy-phenyl)-N-[(2-methoxy-3-pyridyl)sulfonyl]-2-(p-tolyl)pyridine-3-carboxamide], for which the EC30 entry is given as “+++ (“+++” means <3 uM)”.

As for `CC(C)COc1cccc(-c2ccc(C(=O)NS(=O)(=O)c3cccc(N)n3)c(N3C[C@@H](C)CC3(C)C)n2)c1` [Compound 1969, N-[(6-amino-2-pyridyl)sulfonyl]-6-(3-isobutoxyphenyl)-2-[(4S)-2,2,4-trimethylpyrrolidin-1-yl]pyridine-3-carboxamide], the EC30 result is recorded as “+++ (“+++” means <3 uM)”.

Take `COc1ncc(-c2ccc(C(=O)NS(=O)(=O)c3cccc(N)n3)c(N3CCC(C)CC3)n2)cc1C` [Compound 863, N-[(6-amino-2-pyridyl)sulfonyl]-6-(6-methoxy-5-methyl-3-pyridyl)-2-(4-methyl-1-piperidyl)pyridine-3-carboxamide]: the EC30 result was “++ (“++” means between 3 uM and 10 uM)”.

For `Cc1cc(C)c(CN2Cc3ccc(O)cc3C2(C)C(=O)NS(=O)(=O)c2cccc(N)n2)c(C)c1` (stereo not drawn) [Compound 885, N-[(6-amino-2-pyridyl)sulfonyl]-6-hydroxy-1-methyl-2-[(2,4,6-trimethylphenyl)methyl]isoindoline-1-carboxamide], the EC30 result was “++ (“++” means between 3 uM and 10 uM)”.

Turning to `Cc1ccc(-c2ccc(C(=O)NS(=O)(=O)c3cccc(N)n3)c(Oc3c(C)cc(C)cc3C)n2)cc1` [Compound 1035, N-[(6-amino-2-pyridyl)sulfonyl]-6-(p-tolyl)-2-(2,4,6-trimethylphenoxy)pyridine-3-carboxamide], the EC30 result is listed as “+++ (“+++” means <3 uM)”.

On to `CC(C)COc1cc(F)cc(-c2ccc(C(=O)NS(=O)(=O)c3cccc(N)n3)c(OCC3CCCC3)n2)c1` [Compound 1450, N-[(6-amino-2-pyridyl)sulfonyl]-2-(cyclopentylmethoxy)-6-(3-fluoro-5-isobutoxy-phenyl)pyridine-3-carboxamide], for which the EC30 entry is given as “+++ (“+++” means <3 uM)”.

In the case of `CC1CN(c2ncccc2C(=O)NS(=O)(=O)c2cccc(N3Cc4cccc5cccc(c45)C3)n2)C(C)(C)C1` (stereo not drawn) [Compound 1986, N—[[6-(1,3-dihydrobenzo[de]isoquinolin-2-yl)-2-pyridyl]sulfonyl]-2-(2,2,4-trimethylpyrrolidin-1-yl)pyridine-3-carboxamide], the EC30 entry is “+++ (“+++” means <3 uM)”.

With `CC1CN(c2ncccc2C(=O)NS(=O)(=O)c2cccc(N3CCc4c([nH]c5ccccc45)C3)n2)C(C)(C)C1` (stereo not drawn) [Compound 1833, N—[[6-(1,3,4,9-tetrahydropyrido[3,4-b]indol-2-yl)-2-pyridyl]sulfonyl]-2-(2,2,4-trimethylpyrrolidin-1-yl)pyridine-3-carboxamide], the EC30 entry is “+++ (“+++” means <3 uM)”.

On to `Cc1ccc(-c2ccc(C(=O)NS(=O)(=O)c3nccnc3N)c(-c3ccc(C)cc3)n2)cc1` [Compound 820, N-(3-aminopyrazin-2-yl)sulfonyl-2,6-bis(p-tolyl)pyridine-3-carboxamide], for which the EC30 result is reported as “+ (“+” means greater than 10 uM)”.

`COc1ncc(-c2ccc(C(=O)NS(=O)(=O)c3cccnc3OC)c(-c3ccc(C)cc3)n2)cc1C` [Compound 861, 6-(6-methoxy-5-methyl-3-pyridyl)-N-[(2-methoxy-3-pyridyl)sulfonyl]-2-(p-tolyl)pyridine-3-carboxamide]: the EC30 entry was “++ (“++” means between 3 uM and 10 uM)”.
